{"source": "paper PMC9860980", "about": "“Pharmacokinetics and Pharmacodynamics (PK/PD) of Corallopyronin A against Methicillin-Resistant Staphylococcus aureus” (Pharmaceutics, 2022)", "system": "S. aureus strain ATCC 33591 (MRSA-strain)", "procedure": "Organ samples were thawed and homogenized using a Polytron tissue homogenizer after addition of 3 mL isotonic sodium chloride solution. First, a calibration curve was prepared by spiking different concentrations of CorA into the respective matrix from CD-1 mice. Caffeine was used as an internal standard. In addition, quality control samples (QCs) were prepared for CorA for every matrix. For PD samples, calibration curve and QCs were prepared for levofloxacin using the same protocol. The following extraction procedure was used: 50 µL of a sample (calibration sample, QCs, PK or PD sample) was extracted with 20 µL of acetic acid in water (10/90 (v/v)) and 30 µL acetonitrile for 5 min at 800 rpm on an Eppendorf MixMate® vortex mixer. Then, samples were spun down for 20 min at 4 °C and 4000 rpm and supernatants were transferred to new Greiner 96-well V-bottom plates. Samples were analyzed using an Agilent 1290 Infinity II HPLC system (Waldbronn, Germany) coupled to an AB Sciex QTrap6500plus mass spectrometer (Darmstadt, Germany). LC conditions were as follows: column: Agilent Zorbax Exlipse Plus C18, 50 × 2.1 mm, 1.8 µm; temperature: 30 °C; injection volume: 5 µL per sample; flow rate: 800 µL/min. Samples were run under buffered conditions: A: 95% water + 5% acetonitrile + 5 mM ammonium acetate + 40 µL/L acetic acid; B: 95% acetonitrile + 5% water + 5 mM ammonium acetate + 40 µL/L acetic acid. The gradient was as follows: 99% A at 0 min, 99% A until 0.1 min, 99–0% A from 0.1 min to 4.0 min, 0% A until 4.5 min. Mass transitions for controls and compounds are depicted in Table S1. Peaks of PK samples were quantified using the calibration curve. The accuracy of the calibration curve was determined using QCs independently prepared on different days. PK parameters were determined using a non-compartmental analysis with PKSolver.\nInocula were prepared as described previously with the modification that isotonic sodium chloride solution was used instead of PBS [25]. For the neutropenic thigh and the neutropenic lung infection model the S. aureus strain ATCC 33591 (MRSA-strain) was used. For the neutropenic lung infection model an inoculum of 2 × 10^9 cfu/mL was used. For the neutropenic thigh infection model an inoculum of 7 × 10^5 cfu/mL was used.\nThe model was conducted as described previously. In brief, the following groups were used: (1) inoculum control group with terminal endpoint at 2 h post infection to determine baseline inoculum in vivo; (2) vehicle-treated group receiving 20 mg/kg SC tramadol and vehicle (PEG400/PBS (80:20 (v/v)); (3) levofloxacin group 5 mg/kg IP three times a day (TID) (t = 2, 6 and 10 h post infection); (4) CorA 60 mg/kg IP TID (t = 2, 6 and 10 h post infection) and (5) CorA 100 mg/kg IP BID (t = 2 and 6 h post infection). The endpoint for groups no. 2–5 was 24 h post infection. A solution of […].", "note": "Where two headings read alike, the source gives them in different places."}
{"smiles": "C/C=C/C/C=C(\\C)C(O)CC/C(C)=C/C=C(\\C)C(=O)c1c(O)cc([C@H](C)CC/C=C/NC(=O)OC)oc1=O", "note": "(stereo partly shown) [CorA, Corallopyronin A]", "values": [{"measurement": "terminal thigh concentrations lower than in the group at 100 mg/kg IP BID", "setting": "60 mg/kg IP BID (so in the source) vs 100 mg/kg IP BID, thigh", "result": "more than 10 fold"}, {"measurement": "terminal level in lung tissue", "setting": "60 mg/kg IP TID", "result": "not detected"}, {"measurement": "bacterial burden in lung tissue", "setting": "60 mg/kg IP TID, 24 h post infection, secondary seeding, vs vehicle", "result": "did not show any effect"}, {"measurement": "bacterial burden in thigh tissue", "setting": "60 mg/kg IP TID, 24 h post infection, vs vehicle", "result": "did not show any effect"}, {"measurement": "terminal level in lung tissue", "setting": "100 mg/kg IP BID", "result": "detected at low levels"}, {"measurement": "terminal liver levels lower than at 60 mg/kg IP TID", "setting": "100 mg/kg IP BID vs 60 mg/kg IP TID, liver", "result": "more than 5 fold"}, {"measurement": "bacterial burden in thigh", "setting": "100 mg/kg IP BID, 24 h post infection", "result": "significant reduction"}]}
